Results reported in patent US20100311714A1, “1H-IMIDAZO[4,5-c]QUINOLINONE COMPOUNDS” (priority 2009, published 2010).
pIC50: −log10 of the molar value. Where two headings read alike, the source gives them in different places.

Experiments:
[1] = tested on: PKB Ser473 phosphorylation in Rat1-myr-HA-p110 beta cells; test: Reverse protein array, PKB Ser473 phosphorylation in Rat1-myr-HA-p110 beta cells; format: cell-based; settings: Rattus norvegicus, 0.5 h, 30 minutes compound incubation, read-out: p-PKB/IC50_beta
[2] = tested on: PKB Ser473 phosphorylation in Rat1-myr-HA-p110 alpha cells; test: Reverse protein array, PKB Ser473 phosphorylation in Rat1-myr-HA-p110 alpha cells; format: cell-based; settings: Rattus norvegicus, 0.5 h, 30 minutes compound incubation, read-out: p-PKB/IC50_alpha
[3] = biological target: T1, mTOR (Homo sapiens, UniProt P42345); test: Biochemical assay for m-TOR by TR-FRET
T1 construct: purchased Invitrogen Corporation (Carlsbad/Calif., USA) PV4753
T1 sequence (P42345 1360-2549 limits assumed): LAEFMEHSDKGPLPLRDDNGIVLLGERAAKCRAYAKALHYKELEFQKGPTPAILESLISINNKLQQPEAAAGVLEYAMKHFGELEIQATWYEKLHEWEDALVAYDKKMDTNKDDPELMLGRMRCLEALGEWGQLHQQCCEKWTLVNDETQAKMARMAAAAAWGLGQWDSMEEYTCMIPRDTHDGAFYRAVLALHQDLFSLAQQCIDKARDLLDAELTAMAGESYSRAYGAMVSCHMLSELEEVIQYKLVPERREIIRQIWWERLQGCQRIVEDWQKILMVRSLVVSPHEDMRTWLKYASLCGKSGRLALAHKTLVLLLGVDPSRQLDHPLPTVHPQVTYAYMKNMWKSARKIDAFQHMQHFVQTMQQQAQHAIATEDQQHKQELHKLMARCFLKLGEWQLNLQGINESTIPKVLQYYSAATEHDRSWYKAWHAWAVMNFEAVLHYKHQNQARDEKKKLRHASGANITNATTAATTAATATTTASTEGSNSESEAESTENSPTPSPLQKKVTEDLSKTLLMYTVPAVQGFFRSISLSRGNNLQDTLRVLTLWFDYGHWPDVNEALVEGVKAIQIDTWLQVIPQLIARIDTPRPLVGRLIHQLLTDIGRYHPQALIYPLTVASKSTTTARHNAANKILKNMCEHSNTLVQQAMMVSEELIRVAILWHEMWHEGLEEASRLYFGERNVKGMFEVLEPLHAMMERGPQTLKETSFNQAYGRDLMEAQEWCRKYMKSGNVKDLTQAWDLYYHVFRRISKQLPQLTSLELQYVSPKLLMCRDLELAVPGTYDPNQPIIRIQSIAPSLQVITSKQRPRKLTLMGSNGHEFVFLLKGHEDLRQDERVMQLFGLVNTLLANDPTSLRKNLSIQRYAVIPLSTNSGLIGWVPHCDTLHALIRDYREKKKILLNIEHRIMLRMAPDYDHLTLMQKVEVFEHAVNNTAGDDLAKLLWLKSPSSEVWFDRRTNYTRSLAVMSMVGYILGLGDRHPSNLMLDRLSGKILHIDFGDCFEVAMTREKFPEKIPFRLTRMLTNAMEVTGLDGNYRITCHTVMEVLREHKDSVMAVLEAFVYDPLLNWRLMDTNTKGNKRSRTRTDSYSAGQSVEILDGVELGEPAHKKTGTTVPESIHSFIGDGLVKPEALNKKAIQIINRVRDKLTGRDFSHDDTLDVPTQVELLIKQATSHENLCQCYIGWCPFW
Summary of the method: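 mTOR (0.5 nM) phosphorylates GFP-4EBP1 (400 nM) with 8 μM ATP at rt in 50 mM HEPES pH 7.5, 10 mM MnCl2, 50 mM NaCl, 1 mM EGTA, 1 mM DTT; compounds 0.003–10 μM final. EDTA stop with Tb-anti-p4EBP1[pT46] antibody (0.5 nM); TR-FRET read after 15 min against no-enzyme and vehicle controls.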

| SMILES | pIC50 [1] | pIC50 [2] | pIC50 ([3]; read-out: EPK_mTOR/IC50) | pIC50 ([3]; read-out: mTOR/IC50) |
| --- | --- | --- | --- | --- |
| COc1ccc(-n2c(=O)n(C)c3cnc4ccc(-c5cnc(C(OC)OC)c(OC)c5)cc4c32)c(OC)n1 [Example 8.13, 8-(6-Dimethoxymethyl-5-methoxy-pyridin-3-yl)-1-(2,6-dimethoxy-pyridin-3-yl)-3-methyl-1,3-dihydro-imidazo[4,5-c]quinolin-2-one] | 6.67 | 6.68 | 7.07 |  |
| COc1cc(-c2ccc3ncc4c(c3c2)n(-c2ccc(N3CC(F)(F)C3)nc2C)c(=O)n4C)cnc1CO [Example 24.4, 1-[6-(3,3-Difluoro-azetidin-1-yl)-2-methyl-pyridin-3-yl]-8-(6-hydroxymethyl-5-methoxy-pyridin-3-yl)-3-methyl-1,3-dihydro-imidazo[4,5-c]quinolin-2-one] | 7.36 | 7.65 | 6.35 |  |
| COc1cc(-c2ccc3ncc4c(c3c2)n(-c2ccc(N3CCC(OC)C3)nc2C)c(=O)n4C)cnc1CO (centres unmarked) [Example 28.3, 8-(6-Hydroxymethyl-5-methoxy-pyridin-3-yl)-1-[6-(3-methoxy-pyrrolidin-1-yl)-2-methyl-pyridin-3-yl]-3-methyl-1,3-dihydro-imidazo[4,5-c]quinolin-2-one] | 7.35 | 7.35 | 6.76 |  |
| COCc1ncc(-c2ccc3ncc4c(c3c2)n(-c2ccc(F)nc2C)c(=O)n4C)cc1OC [Example 7.7, 1-(6-Fluoro-2-methyl-pyridin-3-yl)-8-(5-methoxy-6-methoxymethyl-pyridin-3-yl)-3-methyl-1,3-dihydro-imidazo[4,5-c]quinolin-2-one] | 6.56 | 7.02 | 6.35 |  |
| COCc1ncc(-c2ccc3ncc4c(c3c2)n(-c2cccnc2C)c(=O)n4C)cc1OC [Example 2.30, 8-(5-Methoxy-6-methoxymethyl-pyridin-3-yl)-3-methyl-1-(2-methyl-pyridin-3-yl)-1,3-dihydro-imidazo[4,5-c]quinolin-2-one] | 6.86 | 7.28 | 7.11 |  |
| COc1cc(-c2ccc3ncc4c(c3c2)n(-c2ccc(N)nc2C)c(=O)n4C)cnc1CO [Example 30.1, 1-(6-Amino-2-methyl-pyridin-3-yl)-8-(6-hydroxymethyl-5-methoxy-pyridin-3-yl)-3-methyl-1,3-dihydro-imidazo[4,5-c]quinolin-2-one] | 6.62 | 7.27 | 6.93 |  |
| COc1cc(-c2ccc3ncc4c(c3c2)n(-c2ccc(N3CC[C@H](O)C3)nc2C)c(=O)n4C)cnc1CO [Example 32.7, 8-(6-Hydroxymethyl-5-methoxy-pyridin-3-yl)-1-[6-((S)-3-hydroxy-pyrrolidin-1-yl)-2-methyl-pyridin-3-yl]-3-methyl-1,3-dihydro-imidazo[4,5-c]quinolin-2-one] | 6.70 | 7.21 | 7.30 |  |
| Cc1nc(N2CCC(O)C2)ccc1-n1c(=O)n(C)c2cnc3ccc(-c4cncc(C(C)(C)O)c4)cc3c21 (centres unmarked) [Example 27.5, 8-[5-(1-Hydroxy-1-methyl-ethyl)-pyridin-3-yl]-1-[6-(3-hydroxy-pyrrolidin-1-yl)-2-methyl-pyridin-3-yl]-3-methyl-1,3-dihydro-imidazo[4,5-c]quinolin-2-one] | 6.71 | 6.79 | 7.82 |  |
| COc1cc(-c2ccc3ncc4c(c3c2)n(-c2ccc(F)nc2C)c(=O)n4C)cnc1CO [Example 7.10, 1-(6-Fluoro-2-methyl-pyridin-3-yl)-8-(6-hydroxymethyl-5-methoxy-pyridin-3-yl)-3-methyl-1,3-dihydro-imidazo[4,5-c]quinolin-2-one] | 7.02 | 6.91 | 6.52 |  |
| COc1ccc(-n2c(=O)n(C)c3cnc4ccc(-c5cnc(CO)c(OC)c5)cc4c32)c(OC)n1 [Example 8.14, 1-(2,6-Dimethoxy-pyridin-3-yl)-8-(6-hydroxymethyl-5-methoxy-pyridin-3-yl)-3-methyl-1,3-dihydro-imidazo[4,5-c]quinolin-2-one] | 7.25 | 7.46 | 6.94 |  |
| Cc1nc(F)ccc1-n1c(=O)n(C)c2cnc3ccc(-c4cncc(N5CCC5)c4)cc3c21 [Example 7.6, 8-(5-Azetidin-1-yl-pyridin-3-yl)-1-(6-fluoro-2-methyl-pyridin-3-yl)-3-methyl-1,3-dihydro-imidazo[4,5-c]quinolin-2-one] | 7.64 | 7.46 | 7.23 |  |
| Cc1nc(N2CC(O)C2)ccc1-n1c(=O)n(C)c2cnc3ccc(-c4cncc(C(C)(C)O)c4)cc3c21 [Example 29.1, 1-[6-(3-Hydroxy-azetidin-1-yl)-2-methyl-pyridin-3-yl]-8-[5-(1-hydroxy-1-methyl-ethyl)-pyridin-3-yl]-3-methyl-1,3-dihydro-imidazo[4,5-c]quinolin-2-one] | 5.96 | 6.47 | 8.30 |  |

Molecules with a higher pIC50 [1], results first:

| pIC50 [1] | pIC50 [2] | pIC50 ([3]; read-out: EPK_mTOR/IC50) | pIC50 ([3]; read-out: mTOR/IC50) | SMILES |
| --- | --- | --- | --- | --- |
| 8.07 | > 8.34 | 8.15 |  | Cc1nc(N2CCC(O)C2)ccc1-n1c(=O)n(C)c2cnc3ccc(-c4cnc(N)c(C(F)(F)F)c4)cc3c21 (centres unmarked) [Example 27.3, 8-(6-Amino-5-trifluoromethyl-pyridin-3-yl)-1-[6-(3-hydroxy-pyrrolidin-1-yl)-2-methyl-pyridin-3-yl]-3-methyl-1,3-dihydro-imidazo[4,5-c]quinolin-2-one] |
| 7.69 | > 8.34 | 7.64 |  | CCOc1ccc(-c2ccc3ncc4c(c3c2)n(-c2ccc(N3CCC(O)C3)nc2C)c(=O)n4C)cn1 (centres unmarked) [Example 27.4, 8-(6-Ethoxy-pyridin-3-yl)-1-[6-(3-hydroxy-pyrrolidin-1-yl)-2-methyl-pyridin-3-yl]-3-methyl-1,3-dihydro-imidazo[4,5-c]quinolin-2-one] |
| 7.75 | 7.56 | 6.18 |  | COc1cc(-c2ccc3ncc4c(c3c2)n(-c2ccc(N3CCCC3)nc2C)c(=O)n4C)cnc1CO [Example 25.4, 8-(6-Hydroxymethyl-5-methoxy-pyridin-3-yl)-3-methyl-1-(2-methyl-6-pyrrolidin-1-yl-pyridin-3-yl)-1,3-dihydro-imidazo[4,5-c]quinolin-2-one] |
| 7.70 | 7.89 | 7.55 |  | CNc1ncc(-c2ccc3ncc4c(c3c2)n(-c2ccc(N3CC[C@@H](O)C3)nc2C)c(=O)n4C)cn1 [Example 34.1, 1-[6-((R)-3-Hydroxy-pyrrolidin-1-yl)-2-methyl-pyridin-3-yl]-3-methyl-8-(2-methylamino-pyrimidin-5-yl)-1,3-dihydro-imidazo[4,5-c]quinolin-2-one] |
| 8.02 | 8.16 |  |  | Cc1ncccc1-n1c(=O)n(C)c2cnc3ccc(-c4cnc5[nH]ccc5c4)cc3c21 [Example 2.8, 3-Methyl-1-(2-methyl-pyridin-3-yl)-8-(1H-pyrrolo[2,3-b]pyridin-5-yl)-1,3-dihydro-imidazo[4,5-c]quinolin-2-one] |
| 7.89 | 8.10 | 8.15 |  | CNc1ncc(-c2ccc3ncc4c(c3c2)n(-c2ccc(N3CC[C@H](O)C3)nc2C)c(=O)n4C)cc1Cl [Example 32.4, 8-(5-Chloro-6-methylamino-pyridin-3-yl)-1-[6-((S)-3-hydroxy-pyrrolidin-1-yl)-2-methyl-pyridin-3-yl]-3-methyl-1,3-dihydro-imidazo[4,5-c]quinolin-2-one] |
| 8.13 | 8.04 | 8.10 |  | CNc1ncc(-c2ccc3ncc4c(c3c2)n(-c2ccc(N3CCC(OC)C3)nc2C)c(=O)n4C)cn1 (centres unmarked) [Example 28.2, 1-[6-(3-Methoxy-pyrrolidin-1-yl)-2-methyl-pyridin-3-yl]-3-methyl-8-(2-methylamino-pyrimidin-5-yl)-1,3-dihydro-imidazo[4,5-c]quinolin-2-one] |
| 8.16 | > 8.34 | 8.05 |  | CCNc1cc(-c2ccc3ncc4c(c3c2)n(-c2ccc(N(C)CCO)nc2C)c(=O)n4C)cnc1CO [Example 26.3, 8-(5-Ethylamino-6-hydroxymethyl-pyridin-3-yl)-1-{6-[(2-hydroxy-ethyl)-methyl-amino]-2-methyl-pyridin-3-yl}-3-methyl-1,3-dihydro-imidazo[4,5-c]quinolin-2-one] |
| 7.85 | 7.86 |  | 7.33 | Cn1c(=O)n(-c2cccnc2F)c2c3cc(-c4cnc5[nH]ccc5c4)ccc3ncc21 [Example 6.3, 1-(2-Fluoro-pyridin-3-yl)-3-methyl-8-(1H-pyrrolo[2,3-b]pyridin-5-yl)-1,3-dihydro-imidazo[4,5-c]quinolin-2-one] |
| 7.77 | > 8.34 | 8.30 |  | COc1ccc(-n2c(=O)n(C)c3cnc4ccc(-c5cncc(N6CCC6)c5)cc4c32)c(OC)n1 [Example 8.11, 8-(5-Azetidin-1-yl-pyridin-3-yl)-1-(2,6-dimethoxy-pyridin-3-yl)-3-methyl-1,3-dihydro-imidazo[4,5-c]quinolin-2-one] |
| > 8.34 | > 8.34 | 7.66 |  | CCNc1cc(-c2ccc3ncc4c(c3c2)n(-c2ccc(N3CCCC3)nc2C)c(=O)n4C)cnc1CO [Example 25.5, 8-(5-Ethylamino-6-hydroxymethyl-pyridin-3-yl)-3-methyl-1-(2-methyl-6-pyrrolidin-1-yl-pyridin-3-yl)-1,3-dihydro-imidazo[4,5-c]quinolin-2-one] |
| 7.83 | 7.84 |  | 7.92 | CNC(=O)c1ccc(-c2ccc3ncc4c(c3c2)n(-c2cccnc2C)c(=O)n4C)cc1 [Example 2.4, N-Methyl-4-[3-methyl-1-(2-methyl-pyridin-3-yl)-2-oxo-2,3-dihydro-1H-imidazo[4,5-c]quinolin-8-yl]-benzamide] |
